Reference: patent US20230117324A1, “OXAZINE MONOACYLGLYCEROL LIPASE (MAGL) INHIBITORS” (Hoffmann-La Roche Inc., priority 2018, published 2023)

biological target: T1, MAGL (recombinant wild-type) (Homo sapiens, UniProt Q99685); test: MAGL inhibition, 4-NPA assay (hydrolysis of 4-nitrophenylacetate, absorbance at 405 nm); assay type: biochemical; conditions: 4-NPA assay (footnote [a]: values not marked [b])
T1 sequence (Q99685 1-303): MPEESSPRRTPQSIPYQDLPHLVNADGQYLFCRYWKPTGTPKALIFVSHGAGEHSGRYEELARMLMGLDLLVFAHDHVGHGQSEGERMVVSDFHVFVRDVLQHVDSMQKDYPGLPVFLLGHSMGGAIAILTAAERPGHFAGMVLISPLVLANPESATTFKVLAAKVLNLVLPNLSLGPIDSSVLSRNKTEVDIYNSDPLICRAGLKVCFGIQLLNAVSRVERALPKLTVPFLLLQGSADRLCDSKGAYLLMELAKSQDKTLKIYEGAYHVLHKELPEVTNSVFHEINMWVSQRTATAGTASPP
Experimental: Compounds were profiled for MAGL inhibitory activity by measuring the enzymatic activity of MAGL by following the hydrolysis of 4-nitrophenylacetate resulting in 4-nitrophenol, which absorbs at 405-412 nm (G. G. Muccioli, G. Labar, D. M. Lambert, Chem. Bio. Chem. 2008, 9, 2704-2710). This assay is hereinafter abbreviated “4-NPA assay”.
The assay was carried out in 384 well assay plates (black with clear bottom, non-binding surface treated, Corning Ref. 3655) in a total volume of 40 μL. Compound dilutions were made in 100% DMSO (VWR Chemicals 23500.297) in a polypropylene plate in 3-fold dilution steps to give a final concentration range in the assay from 25 μM to 1.7 nM. 1 μL compound dilutions (100% DMSO) were added to 19 μL MAGL (recombinant wild-type) in assay buffer (50 mM TRIS (GIBCO, 15567-027), 1 mM EDTA (Fluka, 03690-100 mL)). The plate was shaked for 1 min at 2000 rpm (Variomag Teleshake) and then incubated for 15 min at RT. To start the reaction, 20 μL 4-Nitrophenlyacetate (Sigma N-8130) in assay buffer with 6% EtOH was added. The final concentrations in the assay were 1 nM MAGL and 300 μM 4-Nitrophenylacetate. After shaking (1 min, 2000 rpm) and 5 min incubation at RT, the absorbance at 405 nm was measured for a first time (Molecular Devices, SpectraMax Paradigm). A second measurement was then done after incubation for 80 min at RT. From the two measurements, the slope was calculated by subtracting the first from the second measurement.

Row | SMILES | IC50 [µM]
1 | O=C1CO[C@H]2CCN(C(=O)N3CCC(C(CCO)c4ccc(F)cc4)CC3)C[C@H]2N1 (single isomer, unassigned; (+)) [Example 31, (+)-(4aR,8aS)-6-(4-((R or S)-1-(4-Fluorophenyl)-3-hydroxypropyl)piperidine-1-carbonyl)hexahydro-2H-pyrido[4,3-b][1,4]oxazin-3(4H)-one] | 0.017
2 | O=C1CO[C@H]2CCN(C(=O)N3CCC(C(F)(F)c4ccc(Cl)cc4)CC3)C[C@H]2N1 (single isomer, unassigned) [Example 37, (+) or (−)-cis-6-(4-((4-Chlorophenyl)difluoromethyl)piperidine-1-carbonyl)hexahydro-2H-pyrido[4,3-b][1,4]oxazin-3(4H)-one] | 0.034
3 | Cn1ncc2cc(C3CCN(C(=O)N4CC[C@@H]5OCC(=O)N[C@@H]5C4)CC3)ccc21 (racemic) [Example 16, rac-(4aR,8aS)-6-(4-(1-Methyl-1H-indazol-5-yl)piperidine-1-carbonyl)hexahydro-2H-pyrido[4,3-b][1,4]oxazin-3(4H)-one] | 1.5
4 | O=C1CO[C@H]2CCN(C(=O)N3CCC(C(c4ccc(F)cc4)c4ccc(F)cc4)CC3)C[C@H]2N1 (single isomer, unassigned) [Example 21, (+)-or (−)-cis-6-(4-(bis(4-Fluorophenyl)methyl)piperidine-1-carbonyl)hexahydro-2H-pyrido[4,3-b][1,4]oxazin-3(4H)-one] | 0.001
5 | CCc1cncc(C2CCN(C(=O)N3CC[C@@H]4OCC(=O)N[C@@H]4C3)CC2)c1 (single isomer, unassigned) [Example 40, (+) or (−)-cis-6-(4-(5-Ethylpyridin-3-yl)piperidine-1-carbonyl)hexahydro-2H-pyrido[4,3-b][1,4]oxazin-3(4H)-one] | 0.683
6 | O=C1CO[C@@H]2CCN(C(=O)N3CCN([C@@H](c4ccccc4)c4ccc(F)cc4)CC3)C[C@@H]2N1 (racemic) [Example 17, rac-(4aR,8aS)-6-[4-[rac-(4-Fluorophenyl)-phenylmethyl]piperazine-1-carbonyl]-4,4a,5,7,8,8a-hexahydropyrido[4,3-b][1,4]oxazin-3-one] | 0.006
7 | O=C1CO[C@H]2CCN(C(=O)N3CCC(c4cn(CC5CC5)c5ccc(Cl)cc45)CC3)C[C@H]2N1 (racemic) [Example 2, rac-(4aR,8aS)-6-(4-(5-Chloro-1-(cyclopropylmethyl)-1H-indol-3-yl)piperidine-1-carbonyl)hexahydro-2H-pyrido[4,3-b][1,4]oxazin-3(4H)-one] | 0.002
8 | CC(C)(C)[Si](C)(C)OCCn1cc(C2CCN(C(=O)N3CC[C@@H]4OCC(=O)N[C@@H]4C3)CC2)c2cc(Cl)ccc21 (single isomer, unassigned) [Example 24, (+)-or (−)-cis-6-(4-(1-(2-((tert-Butyldimethylsilyl)oxy)ethyl)-5-chloro-1H-indol-3-yl)piperidine-1-carbonyl)hexahydro-2H-pyrido[4,3-b][1,4]oxazin-3(4H)-one] | 0.0007
9 | O=C1CO[C@H]2CCN(C(=O)N3CCC([C@H](CCO)c4ccc(F)cc4)CC3)C[C@H]2N1 (single isomer, unassigned) [Example 32, (−)-(4aR,8aS)--6-(4-((S or R)-1-(4-Fluorophenyl)-3-hydroxypropyl)piperidine-1-carbonyl)hexahydro-2H-pyrido[4,3-b][1,4]oxazin-3(4H)-one] | 0.203
10 | O=C1CO[C@H]2CCN(C(=O)N3CCC(C(F)(F)c4ccc(F)cc4Cl)CC3)C[C@H]2N1 (single isomer, unassigned) [Example 39, (+) or (−)-cis-6-(4-((2-Chloro-4-fluorophenyl)difluoromethyl)piperidine-1-carbonyl)hexahydro-2H-pyrido[4,3-b][1,4]oxazin-3(4H)-one] | 0.021
11 | O=C1CO[C@H]2CCN(C(=O)N3CCC(c4cncc(C(F)(F)F)c4)CC3)C[C@H]2N1 [Example 29, (4aR,8aS)-6-(4-(5-(Trifluoromethyl)pyridin-3-yl)piperidine-1-carbonyl)hexahydro-2H-pyrido[4,3-b][1,4]oxazin-3(4H)-one] | 0.703

biological target: T2, MAGL (Homo sapiens, UniProt Q99685); test: MAGL inhibition, 2-AG assay (hydrolysis of 2-arachidonoylglycerol, arachidonic acid by mass spectrometry); assay type: biochemical; conditions: 2-AG assay (footnote [b])
T2 sequence (Q99685 1-303): T1 sequence (Q99685 1-303)
Summary of the method: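 Human MAGL […] was preincubated 15 min at RT with compound ([…], 3-fold steps) in 50 mM Tris, 1 mM EDTA, 0.01% Tween. 2-AG (8 μM) was then added for 30 min at RT. Arachidonic acid was quantified by RapidFire SPE–triple quadrupole MS in negative ESI as its ratio to a d8-arachidonic acid standard.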

Row | SMILES | IC50 [µM]
12 | O=C1CO[C@H]2CCN(C(=O)N3CC(c4ccc(OC(F)(F)F)c(Cl)c4)C3)C[C@H]2N1 [Example 211, (4aR,8aS)-6-(3-(3-Chloro-4-(trifluoromethoxy)phenyl)azetidine-1-carbonyl)hexahydro-2H-pyrido[4,3-b][1,4]oxazin-3(4H)-one] | 0.011
13 | Cn1ncc2cc(C3CN(C(=O)N4CC[C@@H]5OCC(=O)N[C@@H]5C4)C3)ccc21 [Example 241, (4aR,8aS)-6-(3-(1-Methyl-1H-indazol-5-yl)azetidine-1-carbonyl)hexahydro-2H-pyrido[4,3-b][1,4]oxazin-3(4H)-one] | 0.245
14 | O=C1CO[C@H]2CCN(C(=O)N3CC(c4ccc(OC(F)(F)F)c(C(F)(F)F)c4)C3)C[C@H]2N1 [Example 243, (4aR,8aS)-6-(3-(4-(Trifluoromethoxy)-3-(trifluoromethyl)phenyl)azetidine-1-carbonyl)hexahydro-2H-pyrido[4,3-b][1,4]oxazin-3(4H)-one] | 0.01
15 | Cc1cc(C2CN(C(=O)N3CC[C@@H]4OCC(=O)N[C@@H]4C3)C2)ccc1OC(F)(F)F [Example 203, (4aR,8aS)-6-(3-(3-Methyl-4-(trifluoromethoxy)phenyl)azetidine-1-carbonyl)hexahydro-2H-pyrido[4,3-b][1,4]oxazin-3(4H)-one] | 0.0008
16 | CC(c1ccc(C(F)(F)F)cc1)C1CCN(C(=O)N2CC[C@@H]3OCC(=O)N[C@@H]3C2)CC1 (single isomer, unassigned) [Example 47, (4aR,8aS)-6-(4-((S or R)-1-(4-(Trifluoromethyl)phenyl)ethyl)piperidine-1-carbonyl)hexahydro-2H-pyrido[4,3-b][1,4]oxazin-3(4H)-one] | 0.514
17 | CC(C)(c1ccc(C2CN(C(=O)N3CC[C@@H]4OCC(=O)N[C@@H]4C3)C2)cc1)C(F)(F)F [Example 245, (4aR,8aS)-6-[3-[4-(2,2,2-Trifluoro-1,1-dimethyl-ethyl)phenyl]azetidine-1-carbonyl]-4,4a,5,7,8,8a-hexahydropyrido[4,3-b][1,4]oxazin-3-one] | 0.0004
18 | CC(Oc1ccc(C2CN(C(=O)N3CC[C@@H]4OCC(=O)N[C@@H]4C3)C2)cc1)C(F)(F)F (single isomer, unassigned) [Example 248, (4aR,8aS)-6-[3-(S or R)-[4-(2,2,2-Trifluoro-1-methyl-ethoxy)phenyl]azetidine-1-carbonyl]-4,4a,5,7,8,8a-hexahydropyrido[4,3-b][1,4]oxazin-3-one] | 0.001
19 | CS(=O)(=O)c1ccc(-c2ccc(C3CN(C(=O)N4CC[C@@H]5OCC(=O)N[C@@H]5C4)C3)cc2)c(Cl)c1 [Example 155] | 0.0008
20 | O=C1CO[C@H]2CCN(C(=O)N3CCN(c4ccc(Br)cc4)CC3)C[C@H]2N1 [Example 168, (4aR,8aS)-6-(4-(4-Bromophenyl)piperazine-1-carbonyl)hexahydro-2H-pyrido[4,3-b][1,4]oxazin-3(4H)-one] | 3.7
21 | O=C1CO[C@H]2CCN(C(=O)N3CC(c4ccc(N5CCCC5C(F)(F)F)cc4)C3)C[C@H]2N1 (single isomer, unassigned) [Example 195] | 0.0004
22 | COc1cc(C2CN(C(=O)N3CC[C@@H]4OCC(=O)N[C@@H]4C3)C2)ccc1C [Example 250, (4aR,8aS)-6-[3-(3-Methoxy-4-methyl-phenyl)azetidine-1-carbonyl]-4,4a,5,7,8,8a-hexahydropyrido[4,3-b][1,4]oxazin-3-one] | 0.106
23 | O=C1CO[C@H]2CCN(C(=O)N3CC(c4ccc(N5CC6CCC(C5)O6)cc4)C3)C[C@H]2N1 [Example 192, (4aR,8aS)-6-(3-(4-(8-Oxa-3-azabicyclo[3.2.1]octan-3-yl)phenyl)azetidine-1-carbonyl)hexahydro-2H-pyrido[4,3-b][1,4]oxazin-3(4H)-one] | 0.008
24 | O=C1CO[C@H]2CCN(C(=O)N3CC(c4ccc(N5CCCC5C(F)(F)F)cn4)C3)C[C@H]2N1 (stereo partly drawn) [Example 207, (4aR,8aS)-6-(3-(5-(2-(Trifluoromethyl)pyrrolidin-1-yl)pyridin-2-yl)azetidine-1-carbonyl)hexahydro-2H-pyrido[4,3-b][1,4]oxazin-3(4H)-one] | 0.006
